{"source": "patent US12054509B2", "about": "“Antimicrobial compounds, compositions, and uses thereof” (Lakewood Amedex, Inc., priority 2017, dated 2024)", "key": {"P. aeruginosa": {"tested_on": "P. aeruginosa", "test": "MIC in lysogeny broth (LB) at pH 4", "assay_type": "cell-based", "settings": "Pseudomonas aeruginosa", "method": "(§1) The MICs are also determined using lysogeny broth (LB) at pH 4 as the growth medium. Under these conditions, Nu-8 is active against E. coli and P. aeruginosa with MICs of 54 and 27 mg/mL, respectively."}, "E. coli": {"tested_on": "E. coli", "test": "MIC in lysogeny broth (LB) at pH 4", "assay_type": "cell-based", "settings": "Escherichia coli", "method": "as §1"}, "pKa measurement": {"test": "pKa measurement", "assay_type": "physicochemical"}, "[1]": {"tested_on": "Escherichia coli (strain CFT073, TPPS 1041)", "test": "Urinary tract infection model in BALB/c mice, confirmatory efficacy (Example 11)", "assay_type": "in vivo", "settings": "for bacterial burden (bladder): 20 minutes post-treatment", "description": "Female BALB/c mice (20-22 g) ordered from Envigo are acclimated to housing conditions and handled in accordance with Animal Use Protocol (AUP) number TP-08. Animals are fed irradiated Teklad Global 29 18 Rodent Diet and water ad libitum. Mice are housed 6/cage in static cages with irradiated ⅛″ Teklad corn cobbedding 7902 inside bioBubble® clean rooms that provide H.E.P.A filtered air into the bubble environment at 100 complete air changes per hour. The environment is controlled to a temperature range of 74°±4° F. and a humidity range of 30-70%. All procedures carried out in this experiment are conducted in compliance with the laws, regulations, and guidelines of the National Institutes of Health and with the approval of the TransPharm Preclinical Solutions Animal Care and Use Committee.\nA clinical isolate of Escherichia coli (strain CFT073, TPPS 1041) are procured from the University of Michigan.\nThe organism is grown overnight at 37° C. in ambient atmosphere on trypticase soy agar plates supplemented with 5% sheep blood cells. The culture is aseptically swabbed and transferred to tubes of trypticase soy broth. The optical density is determined at 600 nm. The culture is diluted to provide an inoculum of approximately 7.5 login CFU per mouse in a volume of 30 μL. Instillation of the bacterial challenge constituted time 0 hour for the study. Inoculum counts are estimated before inoculation by optical density and confirmed after inoculation by dilution and back counts.\nOne hour prior to bacterial challenge, water is removed from animal cages. On Day 0 at 0 hours, mice are anesthetized using isoflurane and urine is expressed from the bladder by applying gentle pressure to the abdomen with the thumb. Mice are infected with bacteria via transurethral injection in a volume of 30 μL. Water is returned to the cages immediately following the challenge. Challenge is performed in a BL2 surgical suite.\nNu-8 (Test article) is prepared immediately before each dosing. Nu-8 is dissolved in sterile saline and adjusted to pH 3.5 with phosphoric acid. At 23 hours post-challenge, water is removed from animal cages. One hour later, mice are anesthetized using isoflurane and residual urine is expressed from the bladder. Mice are treated with test article or controls via transurethral dosing in a volume of 30 μL according to TABLE 9 (showing Animal Challenge and Treatment Schedule). All treatments are administered in a BSL2 surgical suite.\nImmediately following treatment administration, the urethral opening is occluded using Locktite gel superglue. One drop of glue is placed at the urethral opening and the opening is held together for 5-10 seconds using tissue forceps to ensure the urethral opening is occluded and the adhesive is dry. Animals remained under anesthetic following urethral occlusion. […]"}, "[2]": {"tested_on": "wild type P. aeruginosa (PAO1; K2732)", "test": "Bacterial cytological profiling at pH 4, 5.5, 7 (Example 8), P. aeruginosa", "assay_type": "cell-based", "method": "This bacterial cytological profiling (BCP) investigation uses methods and materials described previously by Nonejuie, P., Burkart, M., Poglianoa, K., Pogiano, J. (2013). Bacterial cytological profiling rapidly identifies the cellular pathways targeted by antibacterial molecules. Proc. Natl. Acad. Sci. U.S.A. 110(40):16169-16174. doi: 10.1073/pnas.1311066110.\nFor viable cell counts, cells are grown to OD600≈0.4 and diluted 1:1 into buffered or unbuffered media containing various compound concentrations. Samples are then collected and serially diluted (1:10) on a 96 well plate. Five microliters from each well are spotted on LB plates, incubated at 30° C., and viable cells are counted the next day.\nSamples are collected at 10, 30, 120, and 240 min of exposure for viable cell count and imaging. For imaging, E. coli and S. aureus 200 μL of treated cells per time point are stained with 0.8 μg/mL FM4-64, 1.5 μg/mL DAPI, and 0.4 μM SYTOXGreen (Molecular Probes/Invitrogen). P. aeruginosa samples are stained 0.4 μM SYTOX Green, 28 μg/mL DAN, and 1 μg/mL FM 4-64. Cells are transferred to an agarose pad (20% LB, 1% agarose) for imaging.\nFor Nu-3 and Nu-8 stocks (at pH 4, 5.5 and 7), stock concentration is 500 mg/mL. For pH 4, the stocks are prepared by dissolving Nu-3 in 25 mM citrate buffer and Nu-8 in 350 mM citric acid. For pH 5.5, the stocks are prepared by dissolving Nu-3 in 25 mM citric-phosphate and Nu-8 in 25 mM critic. For pH 7, the stocks are prepared by dissolving Nu-3 and Nu-8 in 25 mM Sorensen phosphate buffer. 2×LB (lysogeny broth) solutions are prepared with 50 mM citrate buffer for pH 4, 50 mM citrate-phosphate buffer for pH 5.5, and 50 mM Sorensen phosphate buffer for pH 7."}}}
{"compound": "CCCCOP(=O)(O)OC[C@H]1O[C@@H](n2ccc(N)nc2=O)C[C@@H]1OP(=O)(O)OCCCC", "note": "[Nu-8, sodium ((2R,3S,5R)-5-(4-amino-2-oxopyrimidin-1(2H)-yl)-3-((butoxyoxidophosphor-yl)oxy)tetrahydrofuran-2-yl)methyl butyl phosphate]", "values": [{"measurement": "MIC", "setting": "P. aeruginosa", "value": 27, "unit": "mg/mL"}, {"measurement": "MIC", "setting": "E. coli", "value": 54, "unit": "mg/mL"}, {"measurement": "pKa", "setting": "pKa measurement", "value": 3.2}, {"measurement": "bacterial burden (bladder)", "setting": "[1]; 205 mg/kg pH 3.5 transurethral", "value": 6.5, "unit": "log 10"}, {"measurement": "bacterial burden (bladder)", "setting": "[1]; 410 mg/kg pH 3.5 transurethral", "value": 5.0, "unit": "log 10"}, {"measurement": "average bladder CFU burden", "setting": "[1]; 820 mg/kg pH 3.5 transurethral, 10 minutes post-treatment", "value": 6.3, "unit": "log 10"}, {"measurement": "bacterial burden (bladder)", "setting": "[1]; 820 mg/kg pH 3.5 transurethral", "value": 5.4, "unit": "log 10"}, {"measurement": "cell growth", "setting": "[2]; pH 5.5 and 7, 112.5 mg/mL", "value": "reduction in cell growth"}, {"measurement": "increase/change in cell permeability", "setting": "[2]; pH 5.5 and 7, 112.5 mg/mL", "value": "< 20", "unit": "%"}, {"measurement": "cell permeability", "setting": "[2]; pH 7, 225 mg/mL, 10 min", "value": "~37", "unit": "%"}]}
